Reference: ChEMBL document CHEMBL3621099, “Design and synthesis of carbazole carboxamides as promising inhibitors of Bruton's tyrosine kinase (BTK) and Janus kinase 2 (JAK2)” (Bioorg Med Chem Lett, 2015)

What was measured:
[1] = target: Tyrosine-protein kinase BTK (Homo sapiens, UniProt Q06187); test: Inhibition of human recombinant BTK
[2] = target: Tyrosine-protein kinase JAK2 (Homo sapiens, UniProt O60674); test: Inhibition of JAK2 (unknown origin)
Tyrosine-protein kinase JAK2, sequence (O60674 whole entry): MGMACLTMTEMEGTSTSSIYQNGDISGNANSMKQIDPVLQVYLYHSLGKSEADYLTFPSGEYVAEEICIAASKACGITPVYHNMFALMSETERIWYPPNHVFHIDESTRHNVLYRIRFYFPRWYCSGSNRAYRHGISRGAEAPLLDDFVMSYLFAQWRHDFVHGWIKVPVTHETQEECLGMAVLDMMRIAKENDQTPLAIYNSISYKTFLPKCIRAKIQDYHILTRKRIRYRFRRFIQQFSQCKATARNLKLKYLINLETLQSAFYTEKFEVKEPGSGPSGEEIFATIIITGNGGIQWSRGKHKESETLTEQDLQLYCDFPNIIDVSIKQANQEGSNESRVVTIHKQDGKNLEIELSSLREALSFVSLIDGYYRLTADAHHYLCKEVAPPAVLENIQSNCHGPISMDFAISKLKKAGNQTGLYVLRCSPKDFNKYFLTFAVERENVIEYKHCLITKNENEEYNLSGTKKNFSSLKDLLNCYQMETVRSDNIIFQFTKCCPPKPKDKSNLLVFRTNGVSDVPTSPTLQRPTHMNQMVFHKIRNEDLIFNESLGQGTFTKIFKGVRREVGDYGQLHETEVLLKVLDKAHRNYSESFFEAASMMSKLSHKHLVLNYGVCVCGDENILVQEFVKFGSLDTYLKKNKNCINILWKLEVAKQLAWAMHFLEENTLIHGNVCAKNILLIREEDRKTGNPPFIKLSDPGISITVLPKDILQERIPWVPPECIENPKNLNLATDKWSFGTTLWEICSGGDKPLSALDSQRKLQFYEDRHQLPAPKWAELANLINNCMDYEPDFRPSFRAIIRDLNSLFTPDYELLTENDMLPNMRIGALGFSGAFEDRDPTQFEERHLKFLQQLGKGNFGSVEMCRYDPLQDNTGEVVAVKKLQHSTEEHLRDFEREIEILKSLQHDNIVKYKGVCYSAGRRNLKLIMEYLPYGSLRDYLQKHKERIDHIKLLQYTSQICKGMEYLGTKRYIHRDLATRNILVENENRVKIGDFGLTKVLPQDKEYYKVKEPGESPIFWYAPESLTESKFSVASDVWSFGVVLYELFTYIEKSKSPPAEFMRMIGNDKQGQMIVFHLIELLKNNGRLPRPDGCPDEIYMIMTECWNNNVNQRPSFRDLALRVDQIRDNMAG

Tyrosine-protein kinase BTK, sequence (Q06187 whole entry): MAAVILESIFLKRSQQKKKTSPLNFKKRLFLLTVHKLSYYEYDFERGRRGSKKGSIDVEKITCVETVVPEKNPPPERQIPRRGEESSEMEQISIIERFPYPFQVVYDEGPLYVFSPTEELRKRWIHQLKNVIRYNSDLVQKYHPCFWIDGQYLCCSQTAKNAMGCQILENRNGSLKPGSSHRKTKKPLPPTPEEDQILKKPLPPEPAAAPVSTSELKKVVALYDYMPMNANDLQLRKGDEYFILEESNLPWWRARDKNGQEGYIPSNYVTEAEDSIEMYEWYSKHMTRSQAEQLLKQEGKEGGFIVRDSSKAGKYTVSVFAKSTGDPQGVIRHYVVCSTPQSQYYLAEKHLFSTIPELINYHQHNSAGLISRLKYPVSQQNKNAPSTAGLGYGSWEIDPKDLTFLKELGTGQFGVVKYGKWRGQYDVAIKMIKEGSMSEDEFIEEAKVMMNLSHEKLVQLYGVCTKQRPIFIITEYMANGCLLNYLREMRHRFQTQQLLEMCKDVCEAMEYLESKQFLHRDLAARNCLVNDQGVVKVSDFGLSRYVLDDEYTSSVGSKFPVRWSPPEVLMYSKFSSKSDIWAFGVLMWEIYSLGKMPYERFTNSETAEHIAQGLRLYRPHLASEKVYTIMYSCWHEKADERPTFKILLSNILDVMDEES

Compound | IC50 [1] | IC50 [2]
CN1CCN(C(=O)c2ccc3c(c2)[nH]c2c(C(N)=O)ccc(-c4cccc(NC(=O)c5ccc(F)cc5)c4F)c23)CC1 | 9.4 nM | 
CNC(=O)c1cccc(-c2ccc(C(N)=O)c3[nH]c4cc(C(=O)N5CCN(C)CC5)ccc4c23)c1 | 71 nM | 
COc1ccc(-c2cc(C(N)=O)c3[nH]c4ccc(C(=O)N5CCOCC5)cc4c3c2)cc1 | 327 nM | 2 nM
CN1CCN(C(=O)c2ccc3c(c2)[nH]c2c(C(N)=O)ccc(-c4ccc(F)cc4F)c23)CC1 | 22 nM | 
Cc1c(Cl)cccc1-c1ccc(C(N)=O)c2[nH]c3cc(C(=O)N4CCN(C)CC4)ccc3c12 | 32 nM | 
Cc1c(NC(=O)c2ccccc2)cccc1-c1ccc(C(N)=O)c2[nH]c3cc(C(=O)N4CCN(C)CC4)ccc3c12 | 7.2 nM | 
CN1CCN(C(=O)c2ccc3c(c2)[nH]c2c(C(N)=O)ccc(-c4cccc(Cl)c4Cl)c23)CC1 | 13 nM | 
Cc1c(NC(=O)c2ccc(C(C)(C)C)cc2)cccc1-c1ccc(C(N)=O)c2[nH]c3cc(C(=O)N4CCN(C)CC4)ccc3c12 | 12 nM | 
CC(=O)Nc1cccc(-c2ccc(C(N)=O)c3[nH]c4cc(C(=O)N5CCN(C)CC5)ccc4c23)c1 | 30 nM | 
NC(=O)c1cc(-c2ccc(Cl)cc2)cc2c1[nH]c1ccc(C(=O)N3CCOCC3)cc12 | 308 nM | 2.6 nM
CN1CCN(C(=O)c2ccc3c(c2)[nH]c2c(C(N)=O)cc(-c4ccc(Cl)c(Cl)c4)cc23)CC1 | 812 nM | 6.2 nM
COc1ccc(-c2cc(C(N)=O)c3[nH]c4cc(C(=O)N5CCN(C)CC5)ccc4c3c2)cc1 | 436 nM | 5.5 nM
Cc1c(N)cccc1-c1ccc(C(N)=O)c2[nH]c3cc(C(=O)N4CCN(C)CC4)ccc3c12 | 19 nM | 
CN1CCN(C(=O)c2ccc3c(c2)[nH]c2c(C(N)=O)ccc(-c4cccc(F)c4F)c23)CC1 | 6.9 nM | 
CNC(=O)c1ccc(-c2ccc(C(N)=O)c3[nH]c4cc(C(=O)N5CCN(C)CC5)ccc4c23)cc1 | 44 nM | 
CC(=O)Nc1cccc(-c2cc(C(N)=O)c3[nH]c4cc(C(=O)N5CCN(C)CC5)ccc4c3c2)c1 | 379 nM | 27 nM
Cc1c(NC(=O)c2ccc(F)cc2)cccc1-c1ccc(C(N)=O)c2[nH]c3cc(C(=O)N4CCN(C)CC4)ccc3c12 | 3.8 nM | 
COc1cccc(-c2cc(C(N)=O)c3[nH]c4ccc(C(=O)N5CCOCC5)cc4c3c2)c1 | 360 nM | 
Cc1ccccc1-c1ccc(C(N)=O)c2[nH]c3cc(C(=O)N4CCN(C)CC4)ccc3c12 | 24 nM | 
COc1cccc(-c2ccc(C(N)=O)c3[nH]c4ccc(C(=O)N5CCN(C)CC5)cc4c23)c1 | 28 nM | 

Compound | IC50 [1] | IC50 [2]
COc1cccc(-c2cc(C(N)=O)c3[nH]c4cc(C(=O)N5CCN(C)CC5)ccc4c3c2)c1 | 404 nM | 4.3 nM
COc1ccccc1-c1ccc(C(N)=O)c2[nH]c3cc(C(=O)N4CCN(C)CC4)ccc3c12 | 144 nM | 
CN1CCN(C(=O)c2ccc3c(c2)[nH]c2c(C(N)=O)ccc(-c4ccc(Cl)c(Cl)c4)c23)CC1 | 101 nM | 
Cc1c(NC(=O)c2ccc(N(C)C)cc2)cccc1-c1ccc(C(N)=O)c2[nH]c3cc(C(=O)N4CCN(C)CC4)ccc3c12 | 3.5 nM | 
CN1CCN(C(=O)c2ccc3c(c2)[nH]c2c(C(N)=O)ccc(-c4c(F)cccc4F)c23)CC1 | 12 nM | 
CC(=O)Nc1ccc(-c2ccc(C(N)=O)c3[nH]c4cc(C(=O)N5CCN(C)CC5)ccc4c23)cc1 | 15 nM | 
NC(=O)c1cc(-c2cccc(Cl)c2)cc2c1[nH]c1ccc(C(=O)N3CCOCC3)cc12 | 189 nM | 1.7 nM
CN1CCN(C(=O)c2ccc3[nH]c4c(C(N)=O)cc(-c5ccc(Cl)cc5)cc4c3c2)CC1 | 110 nM | 
CN1CCN(C(=O)c2ccc3c(c2)[nH]c2c(C(N)=O)ccc(-c4ccc(Oc5ccccc5)cc4)c23)CC1 | 127 nM | 
NC(=O)c1cc(-c2ccc(Cl)c(Cl)c2)cc2c1[nH]c1ccc(C(=O)N3CCOCC3)cc12 | 461 nM | 
CN1CCN(C(=O)c2ccc3c(c2)[nH]c2c(C(N)=O)ccc(-c4cccc(Cl)c4)c23)CC1 | 38 nM | 
CN1CCN(C(=O)c2ccc3c(c2)[nH]c2c(C(N)=O)ccc(-c4ccc(C(C)(C)C)cc4)c23)CC1 | 103 nM | 
CN1CCN(C(=O)c2ccc3c(c2)[nH]c2c(C(N)=O)ccc(-c4cccc(NC(=O)c5ccc(F)cc5)c4)c23)CC1 | 39 nM | 
COc1ccc(-c2ccc(C(N)=O)c3[nH]c4cc(C(=O)N5CCN(C)CC5)ccc4c23)cc1 | 55 nM | 
COc1ccc(-c2ccc(C(N)=O)c3[nH]c4ccc(C(=O)N5CCN(C)CC5)cc4c23)cc1 | 29 nM | 
CN1CCN(C(=O)c2ccc3c(c2)[nH]c2c(C(N)=O)ccc(-c4ccc(Cl)cc4)c23)CC1 | 59 nM | 
CC(=O)Nc1ccc(-c2ccc(C(N)=O)c3[nH]c4ccc(C(=O)N5CCN(C)CC5)cc4c23)cc1 | 39 nM | 
COc1cccc(-c2ccc(C(N)=O)c3[nH]c4cc(C(=O)N5CCN(C)CC5)ccc4c23)c1 | 32 nM | 
CC(=O)Nc1cccc(-c2ccc(C(N)=O)c3[nH]c4ccc(C(=O)N5CCN(C)CC5)cc4c23)c1 | 88 nM | 
